Source: patent US20250382273A1 (INSTITUT NATIONAL DE LA SANTE ET DE LA RECHERCHE MEDICALE, priority 2022, published 2025)

Each molecule was assayed on M. tuberculosis H37Rv_gfp. Conditions: in combination with pretomanid 20 ng·mL−1; 5 days at 37° C.; […]; read-out: EC50 H37Rv_gfp.
Type: cell-based, Mycobacterium tuberculosis

Compound | EC50
Cc1ccc2nc(NC(=O)[C@@H]3C4CCC(C4)[C@@H]3C(=O)O)sc2c1 (stereo in doubt) [Example 3, 3-[(6-methyl-1,3-benzothiazol-2-yl)carbamoyl]norbornane-2-carboxylic acid] | 1000 to 5000 nM
Cc1ccc2nc(N3C(=O)[C@@H]4[C@@H]5CC[C@@H](C5)[C@@H]4C3=O)sc2c1 [Example 4, (1S,2S,6R,7R)-4-(6-methyl-1,3-benzothiazol-2-yl)-4-azatricyclo[5.2.1.02,6]decane-3,5-dione] | 10000 to 20000 nM
COc1ccc2sc(NC(=O)[C@@H]3C4C=CC(C4)[C@@H]3C(=O)O)nc2c1 (stereo partly drawn) [Example 5, 3-[(5-methoxy-1,3-benzothiazol-2-yl)carbamoyl]bicyclo[2.2.1]hept-5-ene-2-carboxylic acid] | 1000 to 5000 nM
COc1ccc2nc(NC(=O)[C@@H]3C4C=CC(C4)[C@@H]3C(=O)O)sc2c1 (stereo partly drawn) [Example 6, 3-[(6-methoxy-1,3-benzothiazol-2-yl)carbamoyl]bicyclo[2.2.1]hept-5-ene-2-carboxylic acid] | 1000 to 5000 nM
CCOc1ccc2nc(NC(=O)[C@@H]3C4C=CC(C4)[C@@H]3C(=O)O)sc2c1 (stereo partly drawn) [Example 7, 3-[(6-ethoxy-1,3-benzothiazol-2-yl)carbamoyl]bicyclo[2.2.1]hept-5-ene-2-carboxylic acid] | < 1000 nM
CCOc1ccc2nc(N3C(=O)[C@@H]4[C@H](C3=O)[C@@H]3C=C[C@H]4C3)sc2c1 [Example 8, (1R,2S,6R,7S)-4-(6-ethoxy-1,3-benzothiazol-2-yl)-4-azatricyclo[5.2.1.02,6]dec-8-ene-3,5-dione] | < 1000 nM
COc1cc2nc(NC(=O)[C@@H]3C4C=CC(C4)[C@@H]3C(=O)O)sc2cc1OC (stereo partly drawn) [Example 9, 3-[(5,6-dimethoxy-1,3-benzothiazol-2-yl)carbamoyl]bicyclo[2.2.1]hept-5-ene-2-carboxylic acid] | 5000 to 10000 nM
O=C(Nc1nc2cc3c(cc2s1)OCCO3)[C@@H]1C2C=CC(C2)[C@@H]1C(=O)O (stereo partly drawn) [Example 10, 3-(6,7-dihydro-[1,4]dioxino[2,3-f][1,3]benzothiazol-2-ylcarbamoyl) bicyclo[2.2.1]hept-5-ene-2-carboxylic acid] | 10000 to 20000 nM
CCc1ccc2nc(NC(=O)[C@@H]3C4C=CC(C4)[C@@H]3C(=O)O)sc2c1 (stereo partly drawn) [Example 11, 3-[(6-ethyl-1,3-benzothiazol-2-yl)carbamoyl]bicyclo[2.2.1]hept-5-ene-2-carboxylic acid] | < 1000 nM
CC(C)(C)c1ccc2nc(NC(=O)[C@@H]3C4C=CC(C4)[C@@H]3C(=O)O)sc2c1 (stereo partly drawn) [Example 12, 3-[(6-tert-butyl-1,3-benzothiazol-2-yl)carbamoyl]bicyclo[2.2.1]hept-5-ene-2-carboxylic acid] | < 1000 nM
Cc1cc(C)c2nc(NC(=O)[C@@H]3C4C=CC(C4)[C@@H]3C(=O)O)sc2c1 (stereo partly drawn) [Example 13, 3-[(4,6-dimethyl-1,3-benzothiazol-2-yl)carbamoyl]bicyclo[2.2.1]hept-5-ene-2-carboxylic acid] | < 1000 nM
Cc1cc2nc(NC(=O)[C@@H]3C4C=CC(C4)[C@@H]3C(=O)O)sc2cc1C (stereo partly drawn) [Example 14, 3-[(5,6-dimethyl-1,3-benzothiazol-2-yl)carbamoyl]bicyclo[2.2.1]hept-5-ene-2-carboxylic acid] | < 1000 nM
Cc1ccc2sc(NC(=O)[C@@H]3C4C=CC(C4)[C@@H]3C(=O)O)nc2c1C (stereo partly drawn) [Example 15, 3-[(4,5-dimethyl-1,3-benzothiazol-2-yl)carbamoyl]bicyclo[2.2.1]hept-5-ene-2-carboxylic acid] | < 1000 nM
Cc1cccc2sc(NC(=O)[C@@H]3C4C=CC(C4)[C@@H]3C(=O)O)nc12 (stereo partly drawn) [Example 16, 3-[(4-methyl-1,3-benzothiazol-2-yl)carbamoyl]bicyclo[2.2.1]hept-5-ene-2-carboxylic acid] | < 1000 nM
O=C(Nc1nc2ccc(Oc3ccccc3)cc2s1)[C@@H]1C2C=CC(C2)[C@@H]1C(=O)O (stereo partly drawn) [Example 17, 3-[(6-phenoxy-1,3-benzothiazol-2-yl)carbamoyl]bicyclo[2.2.1]hept-5-ene-2-carboxylic acid] | < 1000 nM
O=C1[C@@H]2[C@H](C(=O)N1c1nc3ccc(Oc4ccccc4)cc3s1)[C@@H]1C=C[C@H]2C1 [Example 19, (1R,2S,6R,7S)-4-(6-phenoxy-1,3-benzothiazol-2-yl)-4-azatricyclo[5.2.1.02,6]dec-8-ene-3,5-dione] | < 1000 nM
O=C(Nc1nc2ccc(Cc3ccccc3)cc2s1)[C@@H]1C2C=CC(C2)[C@@H]1C(=O)O (stereo partly drawn) [Example 20, 3-[(6-benzyl-1,3-benzothiazol-2-yl)carbamoyl]bicyclo[2.2.1]hept-5-ene-2-carboxylic acid] | < 1000 nM

Compound | EC50
O=C(Nc1nc2ccc(Oc3ccc(F)cc3)cc2s1)[C@@H]1C2C=CC(C2)[C@@H]1C(=O)O (stereo partly drawn) [Example 21, 3-[[6-(4-fluorophenoxy)-1,3-benzothiazol-2-yl]carbamoyl]bicyclo[2.2.1]hept-5-ene-2-carboxylic acid] | < 1000 nM
O=C(Nc1nc2ccc(Oc3ccc(C(F)(F)F)cc3)cc2s1)[C@@H]1C2C=CC(C2)[C@@H]1C(=O)O (stereo partly drawn) [Example 22, 3-[[6-[4-(trifluoromethyl)phenoxy]-1,3-benzothiazol-2-yl]carbamoyl]bicyclo[2.2.1]hept-5-ene-2-carboxylic acid] | 1000 to 5000 nM
O=C1[C@@H]2[C@H](C(=O)N1c1nc3ccc(Oc4ccc(C(F)(F)F)cc4)cc3s1)[C@@H]1C=C[C@H]2C1 [Example 23, (1R,2S,6R,7S)-4-[6-[4-(trifluoromethyl)phenoxy]-1,3-benzothiazol-2-yl]-4-azatricyclo[5.2.1.02,6]dec-8-ene-3,5-dione] | 1000 to 5000 nM
O=C(Nc1nc2ccc(Oc3ccncc3)cc2s1)[C@@H]1C2C=CC(C2)[C@@H]1C(=O)O (stereo partly drawn) [Example 24, 3-[[6-(4-pyridyloxy)-1,3-benzothiazol-2-yl]carbamoyl]bicyclo[2.2.1]hept-5-ene-2-carboxylic acid] | 5000 to 10000 nM
O=C(Nc1nc2ccc(Oc3ncccc3C(F)(F)F)cc2s1)[C@@H]1C2C=CC(C2)[C@@H]1C(=O)O (stereo partly drawn) [Example 25, 3-[[6-[[3-(trifluoromethyl)-2-pyridyl]oxy]-1,3-benzothiazol-2-yl]carbamoyl]bicyclo[2.2.1]hept-5-ene-2-carboxylic acid] | 1000 to 5000 nM
O=C1[C@@H]2[C@H](C(=O)N1c1nc3ccc(Oc4ncccc4C(F)(F)F)cc3s1)[C@@H]1C=C[C@H]2C1 [Example 26, (1R,2S,6R,7S)-4-[6-[[3-(trifluoromethyl)-2-pyridyl]oxy]-1,3-benzothiazol-2-yl]-4-azatricyclo[5.2.1.02,6]dec-8-ene-3,5-dione] | 1000 to 5000 nM
Cc1ccnc(Oc2ccc3nc(NC(=O)[C@@H]4C5C=CC(C5)[C@@H]4C(=O)O)sc3c2)c1 (stereo partly drawn) [Example 29, 3-[[6-[(4-methyl-2-pyridyl)oxy]-1,3-benzothiazol-2-yl]carbamoyl]bicyclo[2.2.1]hept-5-ene-2-carboxylic acid] | < 1000 nM
Cc1ccnc(Oc2ccc3nc(N4C(=O)[C@@H]5C6C=CC(C6)[C@@H]5C4=O)sc3c2)c1 [Example 30] | < 1000 nM
N#Cc1ccnc(Oc2ccc3nc(N4C(=O)[C@@H]5[C@H](C4=O)[C@@H]4C=C[C@H]5C4)sc3c2)c1 [Example 31, 2-[[2-[(1R,2S,6R,7S)-3,5-dioxo-4-azatricyclo[5.2.1.02,6]dec-8-en-4-yl]-1,3-benzothiazol-6-yl]oxy]pyridine-4-carbonitrile] | 1000 to 5000 nM
O=C(Nc1nc2ccc(Oc3ccnc(C(F)(F)F)c3)cc2s1)[C@@H]1C2C=CC(C2)[C@@H]1C(=O)O (stereo partly drawn) [Example 32, 3-[[6-[[2-(trifluoromethyl)-4-pyridyl]oxy]-1,3-benzothiazol-2-yl]carbamoyl]bicyclo[2.2.1]hept-5-ene-2-carboxylic acid] | < 1000 nM
O=C1[C@@H]2[C@H](C(=O)N1c1nc3ccc(Oc4cccc(C(F)(F)F)n4)cc3s1)[C@@H]1C=C[C@H]2C1 [Example 34, (1R,2S,6R,7S)-4-[6-[[6-(trifluoromethyl)-2-pyridyl]oxy]-1,3-benzothiazol-2-yl]-4-azatricyclo[5.2.1.02,6]dec-8-ene-3,5-dione] | 1000 to 5000 nM
O=C(Nc1nc2ccc(Oc3ccc(C(F)(F)F)cn3)cc2s1)[C@@H]1C2C=CC(C2)[C@@H]1C(=O)O (stereo partly drawn) [Example 35, 3-[[6-[[5-(trifluoromethyl)-2-pyridyl]oxy]-1,3-benzothiazol-2-yl]carbamoyl]bicyclo[2.2.1]hept-5-ene-2-carboxylic acid] | 1000 to 5000 nM
O=C1[C@@H]2[C@H](C(=O)N1c1nc3ccc(Oc4ccc(C(F)(F)F)cn4)cc3s1)[C@@H]1C=C[C@H]2C1 [Example 36, (1R,2S,6R,7S)-4-[6-[[5-(trifluoromethyl)-2-pyridyl]oxy]-1,3-benzothiazol-2-yl]-4-azatricyclo[5.2.1.02,6]dec-8-ene-3,5-dione] | < 1000 nM
O=C(Nc1nc2ccc(Oc3ccc(Br)cn3)cc2s1)[C@@H]1C2C=CC(C2)[C@@H]1C(=O)O (stereo partly drawn) [Example 37, 3-[[6-[(5-bromo-2-pyridyl)oxy]-1,3-benzothiazol-2-yl]carbamoyl]bicyclo [2.2.1]hept-5-ene-2-carboxylic acid] | 1000 to 5000 nM
O=C(O)C1C2C=CC(C2)C1C(=O)Nc1nc2ccc([N+](=O)[O-])cc2s1 (stereo not drawn) [Example 38, 3-[(6-nitro-1,3-benzothiazol-2-yl)carbamoyl]bicyclo[2.2.1]hept-5-ene-2-carboxylic acid] | 1000 to 5000 nM
COC(=O)c1ccc2nc(NC(=O)[C@@H]3C4C=CC(C4)[C@@H]3C(=O)O)sc2c1 (stereo partly drawn) [Example 41, 3-[(6-methoxycarbonyl-1,3-benzothiazol-2-yl)carbamoyl]bicyclo[2.2.1]hept-5-ene-2-carboxylic acid] | 1000 to 5000 nM

Same assay, conditions: in combination with pretomanid, unit inferred; read-out: average EC50 H37Rv_gfp

Compound | EC50
CCOc1ccc2nc(NC(=O)[C@@H]3C4C=CC(C4)[C@@H]3C(=O)O)sc2c1 (stereo partly drawn) [Example 7, 3-[(6-ethoxy-1,3-benzothiazol-2-yl)carbamoyl]bicyclo[2.2.1]hept-5-ene-2-carboxylic acid] | 150 nM
O=C(Nc1nc2ccc(Oc3ccc(F)cc3)cc2s1)[C@@H]1C2C=CC(C2)[C@@H]1C(=O)O (stereo partly drawn) [Example 21, 3-[[6-(4-fluorophenoxy)-1,3-benzothiazol-2-yl]carbamoyl]bicyclo[2.2.1]hept-5-ene-2-carboxylic acid] | 270 nM
O=C(Nc1nc2ccc(Oc3ccnc(C(F)(F)F)c3)cc2s1)[C@@H]1C2C=CC(C2)[C@@H]1C(=O)O (stereo partly drawn) [Example 32, 3-[[6-[[2-(trifluoromethyl)-4-pyridyl]oxy]-1,3-benzothiazol-2-yl]carbamoyl]bicyclo[2.2.1]hept-5-ene-2-carboxylic acid] | 320 nM
O=C1[C@@H]2[C@H](C(=O)N1c1nc3ccc(Oc4ccc(C(F)(F)F)cn4)cc3s1)[C@@H]1C=C[C@H]2C1 [Example 36, (1R,2S,6R,7S)-4-[6-[[5-(trifluoromethyl)-2-pyridyl]oxy]-1,3-benzothiazol-2-yl]-4-azatricyclo[5.2.1.02,6]dec-8-ene-3,5-dione] | 220 nM

Same assay, conditions: read-out: EC50 H37Rv_gfp

Compound | EC50
O=C1[C@@H]2[C@H](C(=O)N1c1nc3ccc(Oc4cc(C(F)(F)F)ccn4)cc3s1)[C@@H]1C=C[C@H]2C1 [Example 28, (1R,2S,6R,7S)-4-[6-[[4-(trifluoromethyl)-2-pyridyl]oxy]-1,3-benzothiazol-2-yl]-4-azatricyclo[5.2.1.02,6]dec-8-ene-3,5-dione] | < 1000 nM
N#Cc1ccc2nc(NC(=O)[C@@H]3C4C=CC(C4)[C@@H]3C(=O)O)sc2c1 (stereo partly drawn) [Example 40, 3-[(6-cyano-1,3-benzothiazol-2-yl)carbamoyl]bicyclo[2.2.1]hept-5-ene-2-carboxylic acid] | 1000 to 5000 nM
